Laboratory results as given in publication PMC5068747, “Using C. elegans Forward and Reverse Genetics to Identify New Compounds with Anthelmintic Activity” (PLoS Neglected Tropical Diseases, 2016).
Entries after “also recorded” stand apart in the source; their conditions may differ. Like-named read-outs stand apart in the source and are kept apart here.

Legend:
[1] = system: C. elegans VC2010; experiment: Manual phenotyping pilot screen of 3,584 known compounds (CCBN library); assay type: in vivo, Caenorhabditis elegans; conditions: dissecting microscope, positively confirmed drugs of CCBN library
[2] = system: S. cerevisiae yeast strain BY4743; experiment: Yeast growth rate (OD600) dose titration; assay type: cell-based; conditions: BY4743, YPD, growth rate reduced by 50%
Protocol: The S. cerevisiae yeast strain BY4743 (MATa/α his3Δ1/his3Δ1 leu2Δ0/leu2Δ0 LYS2/lys2Δ0 met15Δ0/MET15 ura3Δ0/ura3Δ0) was used for all yeast experiments and was grown using yeast extract peptone dextrose (YPD) media at pH 7 [52]. BY4743 was grown overnight to initial log phase and was then grown with the compound identified in the C. elegans assay. The growth rate was quantified by continuously monitoring the optical density of the liquid yeast growth at OD600. The compound was screened in a dose-titration in YPD as described. The IC50 was the concentration required to reduce the growth rate or Average G value by 50% compared to a vehicle control (2% DMSO).

[3] = system: Human embryonic kidney (HEK293) cells; experiment: HEK293 viability, MTT colorimetric assay; assay type: cell-based; conditions: read-out: Mammalian IC50
Protocol: Potential anthelmintic compounds identified from primary screening were further tested against mammalian cells and yeast to determine whether they had deleterious effects in those organisms. Human embryonic kidney (HEK293) cells were grown in Dulbecco’s Modified Eagle’s Medium (DMEM; Sigma) containing 5% fetal bovine serum (FBS; Sigma) in 96-well plates tissue culture plates. Compounds were added 24h post-plating at 10, 30, 100, or 300 μM final concentrations. Dimethyl sulfoxide (DMSO) was used as a negative control at 0.1%. Cells were treated for 24 or 48 hours, after which time viability was assessed using a 3-(4,5-dimethylthiazol-2-yl)-2,5-diphenyltetrazolium bromide (MTT) colorimetric assay. Percent viability was determined by comparing treatment values to DMSO control values.

[4] = system: C. elegans VC2010 (wild type); experiment: WormScan screen of C. elegans growth, fecundity, motility and mortality; assay type: in vivo, Caenorhabditis elegans; conditions: for IC50: read-out: Nematode IC50
Protocol: All compound libraries were stored in 96-well plates, with 80 drugs per plate (columns 1 and 12 left empty). A BioGrid BG600 pinning robot (Digilab / BioRobotics) was used for compound transfer. The robot uses a 96-pin tool (0.7 mm dia.) to transfer a nominal volume of 340 nL of compound. For retesting, compounds were hand pinned from the original library plates to assay plates using a single 0.7 mm dia. pin. The assay plates were 96-well clear flat-bottom microplates containing 2% χ1666 E.coli bacteria in 0.5X Liquid Nematode Growth Media (LNGM) plus cholesterol (Bacteria were mass-grown in rich media, and harvested by centrifugation to produce a thick paste of bacterial cells that was kept frozen at -20°C. Cells were resuspended at 2% W/V in 0.5X LNGM to produce liquid worm food). Using a COPAS Biosort (Union Biometrica), two L4 to young adult stage VC2010 worms were added to each well of the plate in a final volume of 45 μL. After five days of exposure to the compounds, the plates were scanned and the data analyzed. A five day time period was chosen to be able to observe effects over all stages of the life cycle and through at least one round of replication. The initial proof-of-principle primary screen was performed manually using a dissecting microscope. Phenotypes scored included decreased motility, reduced brood size, and/or death as described previously. For high throughput screening of the Chembridge and Maybridge compound libraries we used the program WormScan, which was adapted for screening 96-well flat-bottom LNGM plates. Using WormScan it was possible to screen four 96-well plates at a time. Plates were scanned twice, at a resolution of 1200 dots per inch, 16-bit grayscale, producing a jpeg image. The light intensity produced by the scanner was sufficient to cause negative phototaxis equivalent to a physical stimulus for mortality determination. The time required to scan four 96-well plates using an Epson Perfection V700 Photo Scanner was less than ten minutes. The time to screen a single plate was less than 1.2 minutes, with less than ten seconds between scans.
WormScan was used to screen for the same phenotypes as in the manual screen (reduced brood size, reduced behavior/motility response and increased mortality). Two sequential scans for each 96-well plate were aligned to a reference region of interest (ROI). Image analysis was based on a difference image score calculated for each ROI. The difference image score (WormScan score) was normalized using a “percent of control” method to derive a normalized WormScan score. […] Wild-type growth in 1% DMSO (Fig 1A) results in a normalized WormScan score of 100. Exposure to 50 nM ivermectin gives a score of 0 (Fig 1C), and complete absence of worms gives a score of 0 (Fig 1D). For the primary screen the WormScan score was calculated using custom macro scripts written for Fiji. For secondary screening and any subsequent studies the WormScan score was calculated using a standalone Java program (See supplemental). Probit regression of mortality was calculated using Mathematica 8.0.

COC(=O)Nc1nc2ccc(Sc3ccccc3)cc2[nH]1 [Fenbendazole]
Worm Reaction in Drug [1]: UNC (lots of worms)

COP(=S)(OC)Oc1ccc([N+](=O)[O-])cc1 [Methyl Parathione]
Worm Reaction in Drug [1]: SLOW, UNC, ns, 1 gen only

CC[C@@]1(O)C(=O)OCc2c1cc1n(c2=O)Cc2cc3ccccc3nc2-1 [Camptothecine (S, +)]
Worm Reaction in Drug [1]: unc-ish, few progeny, sickly gonads not developed properly ie. Adults but not eggs, etc.

COc1cc2c(cc1OC)[C@@H]1C(=O)c3ccc4c(c3O[C@@H]1CO2)C=CC(C)(C)O4 [Deguelin]
Worm Reaction in Drug [1]: SLOW, VERY few progeny, not starved, not very mobile

Fc1ccc(COc2ccc(-c3nnco3)cc2)cc1 [CID 2740991]
IC50 [2]: > 1000 µM
IC50 [3]: 83 µM
IC50 ([4]; C. elegans, 5 days exposure): 19 µM

N#CSCCCOc1ccccc1Br [CID 2238042]
IC50 [2]: 338 µM
IC50 [3]: 67 µM
IC50 ([4]; C. elegans, 5 days exposure): 357 µM

CC(=O)O[C@@]12C[C@@H](C)[C@@]3(O)[C@@H](C=C(CO)C[C@]4(O)C(=O)C(C)=C[C@@H]34)[C@@H]1C2(C)C [12-Deoxyphorbol 13-acetate]
Worm Reaction in Drug [1]: SLOW only L1/2s (& orig adults), lots unhatched eggs

CCOP(=S)(OCC)Oc1nc(Cl)c(Cl)cc1Cl [Chlorpyrifos]
Worm Reaction in Drug [1]: both DEAD!

C=C(C)C1CC=C(CN(C)C2CCN(C)CC2)CC1 (stereo not shown) [CID 6456299]
IC50 [2]: > 1000 µM
IC50 [3]: 184 µM
IC50 ([4]; C. elegans, 5 days exposure): > 500 µM

COc1cc2c(cc1OC)[C@@H]1C(=O)c3ccc4c(c3O[C@@H]1CO2)CC(C(C)C)O4 (stereo partly shown) [Dihydrorotenone]
Worm Reaction in Drug [1]: SLOW uncish only 1 gen ns

CCCCNC(=O)n1c(NC(=O)OC)nc2ccccc21 [Benomyl, reference compound]
IC50 ([2]; Saccharomyces cerevisiae): 750 µM
IC50 ([3]; Homo sapiens): 8 µM
IC50 ([4]; Caenorhabditis elegans, 120 h): 60 µM

CN(C)c1ccc(C(=C2C=CC(=[N+](C)C)C=C2)c2ccc(N(C)C)cc2)cc1 [Gentian Violet]
Worm Reaction in Drug [1]: SLOW! Ns, uncish, only 1 gen past

CC(C)(C)c1cc(/C=C(\C#N)C(N)=S)cc(C(C)(C)C)c1O [Tyrphostin AG 879]
Worm Reaction in Drug [1]: SLOW! Only on 2nd gen, ns

COP(=O)(OC)C(O)C(Cl)(Cl)Cl (stereo not shown) [Trichlorfon]
Worm Reaction in Drug [1]: VERY unhappy, unc-ish, a few dpy/hypercontracted animals

C=C(C)[C@@]12O[C@@]3(c4ccccc4)O[C@@H]1[C@@H]1[C@@H]4O[C@]4(CO)[C@@H](O)[C@]4(O)C(=O)C(C)=C[C@H]4[C@@]1(O3)[C@H](C)[C@H]2OC(=O)/C=C/C=C/c1ccccc1 [Mezerein]
Worm Reaction in Drug [1]: Adults DEAD, only L1s/2s, not starved

Cl.c1ccc([C@H]2CN3CCSC3=N2)cc1 [(-)-Tetramisole hydrochloride]
Worm Reaction in Drug [1]: UNC! Paralyzed, lots of worms, 1 starved, 1 not

NNC(=O)CCn1c2ccc(Cl)cc2c2cc(Cl)ccc21 [CID 766260]
IC50 [2]: 113 µM
IC50 [3]: 44 µM
IC50 ([4]; C. elegans, 5 days exposure): 282 µM

CC(C)[C@@]1(O)[C@@H](OC(=O)c2ccc[nH]2)[C@@]2(O)[C@@]3(C)C[C@]4(O)O[C@@]5([C@H](O)[C@@H](C)CC[C@]35O)[C@@]2(O)[C@@]14C [Ryanodine]
Worm Reaction in Drug [1]: UNC! 1: lots and starved, 2: few, not starved, less uncish

Cc1nc2c(c3c1[nH]c1ccccc13)C(=O)CC(C)(C)C2 [CID 3254982]
IC50 [2]: 140 µM
IC50 [3]: 37 µM
IC50 ([4]; C. elegans, 5 days exposure): 17 µM

COc1ccc(OCCNC(=O)c2c(F)cccc2Cl)cc1 [CID 2747279]
IC50 ([2]; Saccharomyces cerevisiae): > 1000 µM
IC50 ([3]; Homo sapiens): 190 µM
anthelmintic activity on retest of the 50 compounds most similar to CID 2747322 ([4]; C. elegans, re-pinned, two additional biological replicates): strong anthelmintic activity
IC50 ([4]; Caenorhabditis elegans, 120 h, C. elegans, 5 days exposure): 13 µM

C=C1[C@@H]([C@@]2(C)[C@@H](OC(C)=O)CC(=O)O[C@](C)(COC(C)=O)[C@@H]2C(=O)OC)[C@@H](OC=O)[C@H](OC(=O)[C@H](O)[C@H](C)CC)[C@@]2(C)[C@H](c3ccoc3)CC(=O)[C@]12O [Prieurianin]
Worm Reaction in Drug [1]: SLOW! Only orig adults, one well = dead, ns

CCCCc1ccc2[nH]c(NC(=O)OC)nc2c1 [Parbendazole]
Worm Reaction in Drug [1]: UNC! Lots of worms in 1, not starved in 2

CCCC(=O)O[C@@H]1[C@@H](C)[C@@]2(O)[C@@H](C=C(CO)C[C@]3(O)C(=O)C(C)=C[C@@H]23)[C@@H]2C(C)(C)[C@]12OC(=O)CCC [Phorbol 12, 13-dibutyrate]
Worm Reaction in Drug [1]: SLOW only L1/2s (one gen. only), not starved

CC(=O)OCC1=C[C@H]2[C@@H]3C(C)(C)[C@]3(OC(=O)Cc3ccccc3)C[C@@H](C)[C@]2(O)[C@@H]2C=C(C)C(=O)[C@@]2(O)C1 [12-Deoxyphorbol 13-phenylacetate 20-acetate]
Worm Reaction in Drug [1]: Adults DEAD, only L1s/2s, not starved

C=C(C)[C@H]1Cc2c(ccc3c2O[C@@H]2COc4cc(OC)c(OC)cc4[C@@H]2C3=O)O1 [Rotenone]
Worm Reaction in Drug [1]: SLOW, only one gen., few, not starved

CC[C@@]1(O)C(=O)OCc2c1cc1n(c2=O)Cc2cc3ccccc3nc2-1 [Camptothecin]
Worm Reaction in Drug [1]: SLOW - progeny paralyzed, only adults moving, not starved; also recorded: SLOW 1 well only 3 worms (dead ones, unhatched eggs present), other starved, lots of babies, 2nd gen

O=C(Nc1ccc(Cl)cc1)Nc1ccc2ncccc2c1 [CID 2823320]
IC50 [2]: > 1000 µM
IC50 [3]: 45 µM
IC50 ([4]; C. elegans, 5 days exposure): 40 µM

C=C1C([C@]2(C)C(CC(=O)OC)[C@@](C)(COC(C)=O)OC(=O)C[C@@H]2OC(C)=O)[C@@H](OC=O)[C@H](OC(=O)C(OC(C)=O)C(C)CC)[C@@]2(C)[C@H](c3ccoc3)CC(=O)C12O (stereo partly shown) [Prieuranin Acetate]
Worm Reaction in Drug [1]: SLOW, barely 1 gen, ns; one well = only 1 worm

CNC(=O)O/N=C/C(C)(C)SC [Aldicarb]
Worm Reaction in Drug [1]: UNC adults, but definitely STARVED

Avermectin B1
Worm Reaction in Drug [1]: adults DEAD

CCN(CC)C(=O)NC1C=C2c3cccc4[nH]cc(c34)C[C@H]2N(C)C1.O=C(O)/C=C\C(=O)O (stereo partly drawn) [R(+)-Lisuride hydrogen maleate]
Worm Reaction in Drug [1]: UNCish, starved but slow, lots of worms

COc1ccccc1NC(=O)Nc1nc(-c2cccnc2)nc2ccccc12 [VUF 5574]
Worm Reaction in Drug [1]: uncish adults, starved

Cl.Clc1ccc(Cn2c(CN3CCCC3)nc3ccccc32)cc1 [Clemizole Hydrochloride]
Worm Reaction in Drug [1]: mostly young ones, a few adults but look sterile, a little unc

COc1cccc2c1cc([N+](=O)[O-])c1c(C(=O)O)cc3c(c12)OCO3 [Aristolochic acid A]
Worm Reaction in Drug [1]: SLOW, 1:only L2s, not starved, 2:1 sterile adult?

COC(=O)Nc1nc2ccc(SC(C)C)cc2[nH]1 [Methiazole]
Worm Reaction in Drug [1]: UNC! Lots of worms

CCCCCC(=O)O[C@]1(C(C)=O)CC[C@H]2[C@@H]3CCC4=CC(=O)CC[C@]4(C)[C@H]3CC[C@@]21C [Hydroxyprogesterone Caproate]
Worm Reaction in Drug [1]: slower, one starved one not

CC(Cc1ccccc1)NCCC(c1ccccc1)c1ccccc1 (stereo not shown) [Prenylamine Lactate]
Worm Reaction in Drug [1]: few progeny, not starved stalls at late larval?

O=C1c2ccc(O)c(O)c2C(=O)c2c(O)ccc(O)c21 [Quinalizarin]
Worm Reaction in Drug [1]: SLOW, unc, ns
